Measured values: EPA's CvTdb concentration-time database (doi:10.1093/toxsci/kfy020)

How the values were obtained:
Assay in all cases: concentration in plasma after dosing
[1] = system: rat; conditions: dosed: Diazinon-o-analog, 5.02 mg/kg, oral, male, Sprague-Dawley
[2] = system: rat; conditions: male, Sprague-Dawley
[3] = system: rat; conditions: dosed: Diazinon-o-analog, 5.02 mg/kg, oral, male, Sprague-Dawley; remark: listed apart in the source
[4] = system: rat; conditions: dosed: Diazinon-o-analog, 1.02 mg/kg, iv, male, Sprague-Dawley
[5] = system: rat; conditions: dosed: Diazinon-o-analog, 1.02 mg/kg, iv, male, Sprague-Dawley; remark: listed apart in the source
[6] = system: rat; conditions: dosed: Flufenacet, 5.2 mg/kg, oral, male, Sprague-Dawley
[7] = system: rat; conditions: dosed: Flufenacet, 1.0 mg/kg, iv, male, Sprague-Dawley
[8] = system: rat; conditions: dosed: Flufenacet, 1.0 mg/kg, iv, male, Sprague-Dawley; remark: listed apart in the source
[9] = system: rat; conditions: dosed: Flufenacet, 5.2 mg/kg, oral, male, Sprague-Dawley; remark: listed apart in the source
[10] = system: rat; conditions: dosed: Pentadecafluorooctanoic acid, 1.0000000000 mg/kg, oral, male, Sprague-Dawley
[11] = system: rat; conditions: dosed: Pentadecafluorooctanoic acid, 0.2000000000 mg/kg, iv, male, Sprague-Dawley
[12] = system: rat; conditions: dosed: Pentadecafluorooctanoic acid, 0.2000000000 mg/kg, iv, male, Sprague-Dawley; remark: listed apart in the source
[13] = system: rat; conditions: dosed: Pentadecafluorooctanoic acid, 1.0000000000 mg/kg, oral, male, Sprague-Dawley; remark: listed apart in the source
[14] = system: rat; conditions: dosed: Pentadecafluorooctanoic acid, 1.0000000000 mg/kg, oral, male, Sprague-Dawley; remark: listed apart in the source
[15] = system: rat; conditions: dosed: Pentadecafluorooctanoic acid, 0.2000000000 mg/kg, iv, male, Sprague-Dawley; remark: listed apart in the source
[16] = system: rat; conditions: dosed: Imidacloprid, 5.0000000000 mg/kg, iv, male, Sprague-Dawley
[17] = system: rat; conditions: dosed: Imidacloprid, 5.0000000000 mg/kg, iv, male, Sprague-Dawley; remark: listed apart in the source
[18] = system: rat; conditions: dosed: Imidacloprid, 5.0000000000 mg/kg, iv, male, Sprague-Dawley; remark: listed apart in the source
[19] = system: rat; conditions: dosed: Imidacloprid, 5.0000000000 mg/kg, oral, male, Sprague-Dawley
[20] = system: rat; conditions: dosed: Imidacloprid, 5.0000000000 mg/kg, oral, male, Sprague-Dawley; remark: listed apart in the source
[21] = system: rat; conditions: dosed: Imidacloprid, 5.0000000000 mg/kg, oral, male, Sprague-Dawley; remark: listed apart in the source
[22] = system: rat; conditions: dosed: Chloridazon, 4.17 mg/kg, oral, male, Sprague-Dawley
[23] = system: rat; conditions: dosed: Chloridazon, 4.17 mg/kg, oral, male, Sprague-Dawley; remark: listed apart in the source
[24] = system: rat; conditions: dosed: Chloridazon, 0.80 mg/kg, iv, male, Sprague-Dawley
[25] = system: rat; conditions: dosed: Chloridazon, 0.80 mg/kg, iv, male, Sprague-Dawley; remark: listed apart in the source

CCOP(=O)(OCC)Oc1cc(C)nc(C(C)C)n1 [Diazinon-o-analog]
concentration in plasma [ng/mL]
Conditions | [1] | [3] | [4] | [5]
0.167 h | – | – | 374 | 337
0.25 h | 1780 | 1220 | – | –
0.5 h | 330 | 1070 | 1340 | 349
1 h | 1040 | 1060 | 413 | 440
2 h | 786 | 948 | 286 | 294
4 h | 745 | 784 | 188 | 155
5 min | – | – | 247 | 214
8 h | 316 | 292 | 60.9 | 59.5
24 h | 5.04 | 4.31 | 0.552 | 0.498
48 h | 0.193 | 0.116 | 0.0484 | –
72 h | 3.73 | 1.21 | – | 0.247

[2], dosed: Diazinon-o-analog
Conditions | concentration in plasma [ng/mL]
0.167 h, 1.02 mg/kg, iv | 596
0.25 h, 5.02 mg/kg, oral | 916
0.5 h, 1.02 mg/kg, iv | 597
0.5 h, 5.02 mg/kg, oral | 846
1 h, 1.02 mg/kg, iv | 356
1 h, 5.02 mg/kg, oral | 1180
2 h, 1.02 mg/kg, iv | 271
2 h, 5.02 mg/kg, oral | 1140
4 h, 1.02 mg/kg, iv | 174
4 h, 5.02 mg/kg, oral | 715
5 min, 1.02 mg/kg, iv | 564
8 h, 1.02 mg/kg, iv | 57.9
8 h, 5.02 mg/kg, oral | 298
24 h, 1.02 mg/kg, iv | 1.14
24 h, 5.02 mg/kg, oral | 2.63
48 h, 5.02 mg/kg, oral | 1.84
72 h, 1.02 mg/kg, iv | 0.481
72 h, 5.02 mg/kg, oral | 0.239

CC(C)N(C(=O)COc1nnc(C(F)(F)F)s1)c1ccc(F)cc1 [Flufenacet]
concentration in plasma [ng/mL]
Conditions | [6] | [7] | [8] | [9]
0.167 h | – | 80.7 | 52.4 | –
0.25 h | 0.708 | – | – | 2.17
0.5 h | 0.41 | 13.7 | 8.65 | 1.32
1 h | 0.274 | 1.82 | 4.31 | 0.462
2 h | 0.256 | 0.896 | 3.42 | 0.22
4 h | 0.199 | 0.328 | 2.88 | 0.135
5 min | – | 195 | 128 | –
8 h | 0.15 | 0.0709 | 0.0986 | 0.116
24 h | 0.0249 | 0.0595 | 0.044 | 0.0179
48 h | 0.017 | 0.0264 | 0.026 | 0.0128
72 h | 0.0224 | 0.0353 | 0.0121 | 0.0208

[2], dosed: Flufenacet
Conditions | concentration in plasma [ng/mL]
0.167 h, 1.0 mg/kg, iv | 20.4
0.25 h, 5.2 mg/kg, oral | 0.81
0.5 h, 1.0 mg/kg, iv | 4.05
0.5 h, 5.2 mg/kg, oral | 0.401
1 h, 1.0 mg/kg, iv | 3.72
1 h, 5.2 mg/kg, oral | 0.451
2 h, 1.0 mg/kg, iv | 1.81
2 h, 5.2 mg/kg, oral | 0.188
4 h, 1.0 mg/kg, iv | 2.03
4 h, 5.2 mg/kg, oral | 0.146
5 min, 1.0 mg/kg, iv | 48.6
8 h, 1.0 mg/kg, iv | 2.1
8 h, 5.2 mg/kg, oral | 0.0824
24 h, 1.0 mg/kg, iv | 0.0352
24 h, 5.2 mg/kg, oral | 0.0158
48 h, 1.0 mg/kg, iv | 0.0229
48 h, 5.2 mg/kg, oral | 0.0322
72 h, 1.0 mg/kg, iv | 0.0508
72 h, 5.2 mg/kg, oral | 0.0214

O=C(O)C(F)(F)C(F)(F)C(F)(F)C(F)(F)C(F)(F)C(F)(F)C(F)(F)F [Pentadecafluorooctanoic acid]
concentration in plasma [ng/mL]
Conditions | [10] | [11] | [12] | [13] | [14] | [15]
0.25 h | 363 | – | – | 762 | 248 | –
0.5 h | 540 | 245 | 188 | 608 | 379 | 150
1 h | 669 | 226 | 189 | 897 | 665 | 144
2 h | 957 | 236 | 196 | 950 | 764 | 138
4 h | 1040 | 196 | 189 | 924 | 765 | 168
5 min | – | 310 | 257 | – | – | 208
8 h | 1100 | 207 | 171 | 1210 | 955 | 148
10 min | – | 280 | 207 | – | – | 176
12 h | 1100 | 194 | 135 | 1180 | 1030 | 147
24 h | 1040 | 195 | 168 | 1130 | 1010 | 141
48 h | 1510 | 161 | 148 | 916 | 857 | 115
72 h | 663 | 153 | 122 | 855 | 563 | 98

[2], dosed: Pentadecafluorooctanoic acid
Conditions | concentration in plasma [ng/mL]
0.25 h, 1.0000000000 mg/kg, oral | 420
0.5 h, 0.2000000000 mg/kg, iv | 156
0.5 h, 1.0000000000 mg/kg, oral | 584
1 h, 0.2000000000 mg/kg, iv | 145
1 h, 1.0000000000 mg/kg, oral | 885
2 h, 0.2000000000 mg/kg, iv | 150
2 h, 1.0000000000 mg/kg, oral | 1170
4 h, 0.2000000000 mg/kg, iv | 141
4 h, 1.0000000000 mg/kg, oral | 1190
5 min, 0.2000000000 mg/kg, iv | 221
8 h, 0.2000000000 mg/kg, iv | 123
8 h, 1.0000000000 mg/kg, oral | 1140
10 min, 0.2000000000 mg/kg, iv | 188
12 h, 0.2000000000 mg/kg, iv | 142
12 h, 1.0000000000 mg/kg, oral | 1120
24 h, 0.2000000000 mg/kg, iv | 139
24 h, 1.0000000000 mg/kg, oral | 1270
48 h, 0.2000000000 mg/kg, iv | 59
48 h, 1.0000000000 mg/kg, oral | 911
72 h, 0.2000000000 mg/kg, iv | 100
72 h, 1.0000000000 mg/kg, oral | 655

O=[N+]([O-])/N=C1\NCCN1Cc1ccc(Cl)nc1 [Imidacloprid]
concentration in plasma [ng/mL]
Conditions | [16] | [17] | [18] | [19] | [20] | [21]
0.25 h | – | – | – | 4410 | 831 | 1770
0.5 h | 382 | 743 | 1140 | 4310 | 935 | 2660
1 h | 560 | 603 | 922 | 6030 | 1930 | 2670
2 h | 694 | 786 | 626 | 3400 | 2060 | 2380
4 h | 548 | 552 | 478 | 2480 | 2620 | 1990
5 min | 217 | 786 | 1260 | – | – | –
8 h | 170 | 232 | 191 | 2670 | 2950 | 648
10 min | 328 | 683 | 1500 | – | – | –
12 h | 67 | 141 | 67.5 | 1520 | 1200 | 278
24 h | 8.54 | 14 | 8.66 | 259 | 279 | 46
48 h | – | 2.12 | – | 33.6 | 17.9 | 14.5
72 h | 2.49 | – | – | – | 13.2 | 8.76

concentration in plasma [ng/mL], [2], dosed: Imidacloprid, 5.0000000000 mg/kg
Conditions | iv | oral
0.25 h | – | 1600
0.5 h | 971 | 2290
1 h | 683 | 1550
2 h | 943 | 2920
4 h | 695 | 2610
5 min | 1190 | –
8 h | 327 | 2330
10 min | 1260 | –
12 h | 233 | 1360
24 h | 17.6 | 171
48 h | 2.89 | 19.7
72 h | – | 6.62

Nc1cnn(-c2ccccc2)c(=O)c1Cl [Chloridazon]
concentration in plasma [ng/mL]
Conditions | [22] | [23] | [24] | [25]
0.167 h | – | – | 477 | 228
0.25 h | 476 | 402 | – | –
0.5 h | 636 | 466 | 349 | 352
1 h | 858 | 863 | 106 | 102
2 h | 586 | 337 | 11.4 | 23.6
4 h | 158 | 64.9 | 1.03 | 1.66
5 min | – | – | 404 | 371
8 h | 3.03 | 48.8 | 1.72 | 0.333
24 h | 0.913 | 0.604 | 0.115 | 0.0228
48 h | 0.0563 | 0.0265 | – | 0.0394
72 h | 0.00435 | 0.0146 | 0.116 | –

[2], dosed: Chloridazon
Conditions | concentration in plasma [ng/mL]
0.167 h, 0.80 mg/kg, iv | 54.2
0.25 h, 4.17 mg/kg, oral | 382
0.5 h, 0.80 mg/kg, iv | 144
0.5 h, 4.17 mg/kg, oral | 616
1 h, 0.80 mg/kg, iv | 88
1 h, 4.17 mg/kg, oral | 863
2 h, 0.80 mg/kg, iv | 106
2 h, 4.17 mg/kg, oral | 371
4 h, 0.80 mg/kg, iv | 88.3
4 h, 4.17 mg/kg, oral | 202
5 min, 0.80 mg/kg, iv | 84.5
8 h, 0.80 mg/kg, iv | 0.556
8 h, 4.17 mg/kg, oral | 93.2
24 h, 0.80 mg/kg, iv | 0.0877
24 h, 4.17 mg/kg, oral | 0.329
48 h, 0.80 mg/kg, iv | 0.0282
48 h, 4.17 mg/kg, oral | 0.0714
72 h, 0.80 mg/kg, iv | 0.072
